Laboratory results published in patent US6495675B1, “Pharmaceutical composition for treating or preventing influenza, and novel capped oligonucleotide” (Chiba Institute of Technology, priority 1997, dated 2002).
Like-named read-outs stand apart in the source and are kept apart here. Strand notation (5' to 3'): a small letter for the sugar, then the base; units joined by * are phosphorothioate-linked, units joined directly phosphodiester-linked; [ ] holds rarer units or linkages, { } end groups; capitals alone tell only the bases. {m7GpppGm} = cap: 7-methylguanosine 5'-5' triphosphate-linked to 2'-O-methylguanosine; {m7GpppG} = cap: 7-methylguanosine 5'-5' triphosphate-linked to guanosine; r = 2'-OH (RNA)

Tested on: CAT protein expression in 76 cells expressing RNA polymerases (PB1, PB2, and PA) and NP protein of influenza A virus (A/PR/8/34)
Type: cell-based

Substance	inhibition of CAT protein expression (in words) (concentration not specified)	inhibition of CAT protein expression (in words) (high dose (0.3 μM))
m^7GpppG AAUACUC ({m7GpppG}-rArArUrArCrUrC) [G8]	significant inhibition	
m^7GpppGmAAUACUC ({m7GpppGm}-rArArUrArCrUrC) [Gm8]	significant inhibition	
m^7GpppGmAAUACUCAAACU ({m7GpppGm}-rArArUrArCrUrCrArArArCrU) [Gm13, reference compound]	weak inhibition	little inhibition
